Test results taken from ChEMBL document CHEMBL6178020, “Harder than Metal: Challenging Antimicrobial Resistance with Metallo-β-lactamase Inhibitors” (J Med Chem, 2025).
pIC50, pKi: −log10 of the molar value. One block for each compound: values may come before it.

Tests used:
[1] = target: T1, Metallo-beta-lactamase type 2 (Bacteria, UniProt C7C422); experiment: Inhibition of Metallo-beta-lactamase NDM-1 (unknown origin)
[2] = target: T1, Metallo-beta-lactamase type 2; experiment: Inhibition of N-terminal NDM-1 (unknown origin) extracted from Escherichia coli BL21; settings: for pIC50: read-out: IC50
[3] = target: T1, Metallo-beta-lactamase type 2; experiment: Binding affinity to N-terminal NDM-1 (unknown origin) extracted from Escherichia coli BL21 assessed as inhibition constant
[4] = target: T1, Metallo-beta-lactamase type 2; experiment: Inhibition of NDM-1 (unknown origin)
Serratia marcescens [5] = experiment: Antibacterial activity against Serratia marcescens expressing IMP-1 assessed as bacterial growth inhibition in presence of IPM; assay type: functional
Escherichia coli [6] = experiment: Antibacterial activity against Escherichia coli expressing NDM-1 assessed as bacterial growth inhibition in presence of IPM; assay type: functional
Klebsiella pneumoniae [7] = experiment: Antibacterial activity against Klebsiella pneumoniae expressing VIM-1 assessed as bacterial growth inhibition in presence of IPM; assay type: functional
Escherichia coli [8] = experiment: Antibacterial activity against carbapenem-resistant Escherichia coli […] infected in mouse assessed as fold reduction in bacterial load at 10 mg/kg, sc measured for 24 hrs in presence of Meropenem; assay type: functional
Klebsiella pneumoniae [9] = experiment: Antibacterial activity against carbapenem-resistant Klebsiella pneumoniae B68-1 infected in mouse assessed as fold reduction in bacterial load at 10 mg/kg, sc measured for 24 hrs in presence of Meropenem; assay type: functional
Escherichia coli [10] = experiment: Antibacterial activity against carbapenem-resistant Escherichia coli IHMA 997800 infected in mouse assessed as fold reduction in bacterial load at 10 mg/kg, sc measured for 24 hrs in presence of Meropenem; assay type: functional
Escherichia coli [11] = experiment: Antibacterial activity against carbapenem-resistant Escherichia coli IR57 infected in mouse assessed as fold reduction in bacterial load at 10 mg/kg, sc measured for 24 hrs in presence of Meropenem; assay type: functional
Serratia marcescens [12] = experiment: Antibacterial activity against Serratia marcescens expressing IMP-1 assessed as bacterial growth inhibition; assay type: functional
Klebsiella pneumoniae [13] = experiment: Antibacterial activity against Klebsiella pneumoniae expressing VIM-1 assessed as bacterial growth inhibition; assay type: functional
Escherichia coli [14] = experiment: Antibacterial activity against Escherichia coli expressing NDM-1 assessed as bacterial growth inhibition; assay type: functional

T1 sequence (C7C422 whole entry): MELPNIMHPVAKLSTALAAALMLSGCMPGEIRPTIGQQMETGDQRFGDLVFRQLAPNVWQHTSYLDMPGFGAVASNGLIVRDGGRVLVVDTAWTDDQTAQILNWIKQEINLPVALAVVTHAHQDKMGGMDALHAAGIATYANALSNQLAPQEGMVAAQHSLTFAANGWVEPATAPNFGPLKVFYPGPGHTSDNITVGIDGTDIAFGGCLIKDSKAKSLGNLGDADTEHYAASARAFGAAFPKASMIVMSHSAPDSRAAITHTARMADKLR

SMILES: N[C@H](CN[C@H](CN[C@@H](CC(=O)O)C(=O)O)C(=O)O)C(=O)O
pIC50 [1]: 5.40

SMILES: O=C(O)c1ncsc1NS(=O)(=O)c1cccnc1
pKi [3]: 6.10

SMILES: NS(=O)(=O)c1nccc(-c2ccc(CO)cc2)c1-c1nn[nH]n1
pIC50 [4]: 7.46
MITC95 (Serratia marcescens [5]): 5.19 µM
MITC95 (Escherichia coli [6]): 0.558 µM
MITC95 (Klebsiella pneumoniae [7]): 11.76 µM

SMILES: Nc1cc(-c2nnn[nH]2)c(S(N)(=O)=O)cc1S(N)(=O)=O
pIC50 [4]: 7.48

SMILES: Cc1ccc(-c2cccc(S(N)(=O)=O)c2-c2nnn[nH]2)cc1
MITC95 (Serratia marcescens [5]): 13.8 µM
MITC95 (Escherichia coli [6]): 1.48 µM
MITC95 (Klebsiella pneumoniae [7]): 127 µM

SMILES: COc1ccc(Cl)cc1-c1c(C(=O)O)[nH]c2c1CCc1ccccc1-2
pIC50 [2]: 7.30

SMILES: C[C@@H](c1cccc2c(-c3ccc(CS(C)(=O)=O)c(F)c3)c(C(=O)O)[nH]c12)N1CC2(CC(CN)C2)OC1=O (stereo not given in full)
fold change (FC) (Escherichia coli [8]): 7
fold change (FC) (Klebsiella pneumoniae [9]): 7
fold change (FC) (Escherichia coli [10]): 7
IC50 ([2]; read-out: pIC50 (converted)): < 0.001 µM
fold change (FC) (Escherichia coli [11]): 7

SMILES: OCC(S)CS (stereo not given) [DIMERCAPROL]
pIC50 [1]: 5.89

SMILES: C[C@@H](O)[C@H]1C(=O)N2C(C(=O)O)=C(SCCNC=N)C[C@H]12 [IMIPENEM ANHYDROUS]
MITC95 (Serratia marcescens [12]): 16 µg/mL
MITC95 (Klebsiella pneumoniae [13]): 64 µg/mL
MITC95 (Escherichia coli [14]): 32 µg/mL

SMILES: O=C(O)CN1CCN(CC(=O)O)CCN(CC(=O)O)CCN(CC(=O)O)CC1 [TETRAXETAN]
pIC50 [1]: 5.87

SMILES: O=C(O)CNC(=O)C(CS)Cc1ccccc1 (stereo not given) [THIORPHAN]
pIC50 [1]: 5.74

Other lines, results leading:

pIC50 [1]: 6.55
SMILES: O=C(O)CN1CCN(CC(=O)O)CCN(CC(=O)O)CC1

pIC50 [2]: 7.10
SMILES: Nc1cccc(-c2cc(C(=O)O)nc(C(=O)O)c2)c1

pIC50 [1]: 5.34
SMILES: C[C@H](CS)C(=O)N1CCc2ccccc2[C@@H]1C(=O)O

pIC50 [1]: 4.95
SMILES: C[C@H](CS)C(=O)N1CCC(C(N)=O)CC1

pIC50 [1]: 4.55
SMILES: C[C@H](CS)C(=O)N1CCC[C@H](C(=O)O)C1

pIC50 [1]: 4.69
SMILES: C[C@H](CS)C(=O)N1CCCCC[C@@H]1C(=O)O

pIC50 [1]: 4.55
SMILES: C[C@H](CS)C(=O)N1CCC(CC(N)=O)CC1

pIC50 [1]: 5.16
SMILES: C[C@H](CS)C(=O)N1CCCC[C@@H]1C(=O)O

pIC50 [1]: < 3.52
SMILES: C[C@H](CS)C(=O)N1Cc2ccccc2C[C@@H]1C(=O)O

pIC50 [1]: 4.12
SMILES: O=C(O)[C@H]1CCCN1C(=O)C(CS)CS

pIC50 [1]: 5.31
SMILES: C[C@H](CS)C(=O)N1CCC(C(=O)O)CC1

pIC50 [1]: 4.70
SMILES: C[C@H](CS)C(=O)N1CCC(CC(=O)O)CC1

pKi [3]: 7.40
SMILES: N=C(N)NNC(=O)Nc1c(F)cc(S(=O)(=O)Nc2scnc2C(=O)O)cc1F
